In data set [1] the test system is Human immunodeficiency virus 1. Nature of the data set: Antiviral activity against HIV1 by multi-cycle antiviral assay. The data set is classed as functional, organism-based.
In data set [2] the test system is Human immunodeficiency virus 1. Put plainly: Antiviral activity against HIV1 by single-cycle antiviral assay. Format: functional, organism-based.
The test system of data set [3] is Human immunodeficiency virus. Nature of the data set: Antiviral activity against HIV by XTT assay. The data set is classed as functional, organism-based. The conditions noted are these: Human immunodeficiency virus 1. (Formazan colour is commonly taken as a measure of viable cells.)
For data set [4], the system named is KB. Put plainly: Cytotoxicity against human KB cells. Format: cell-based.
Data set [5] deals with Human immunodeficiency virus 1. Nature of the data set: Antiviral activity against HIV1 3B infected in human MT2 cells assessed as reduction in virus-induced cell death. Format: functional. The following applies: Human immunodeficiency virus 1, 3B.
The nature of data set [6]: Cytotoxicity against human MT2 cells. The data set is classed as cell-based. The conditions noted are these: read-out: TC50 (the source's name).
Data set [7] relates to Human immunodeficiency virus. Put plainly: Antiviral activity against HIV. The conditions noted are these: Human immunodeficiency virus 1. Format: functional, organism-based.
Data set [8] deals with Human immunodeficiency virus 1. Nature of the data set: Antiviral activity against HIV1 JRFL. The conditions noted are these: Human immunodeficiency virus 1, JRFL. Format: functional, organism-based.
Data set [9] concerns Human immunodeficiency virus 1. Put plainly: Antiviral activity against HIV1 SF162. The data set is classed as functional, organism-based. The following applies: Human immunodeficiency virus 1, SF162.
The test system of data set [10] is Human immunodeficiency virus 1. Nature of the data set: Antiviral activity against HIV1 TLAV. Format: functional, organism-based. The following applies: Human immunodeficiency virus 1, TLAV.
Data set [11] deals with Human immunodeficiency virus 1. Nature of the data set: Antiviral activity against HIV1 BAL. The conditions noted are these: Human immunodeficiency virus 1, BAL. The data set is classed as functional, organism-based.
The test system of data set [12] is Human immunodeficiency virus 1. Put plainly: Antiviral activity against HIV1 SF2. The data set is classed as functional, organism-based. The conditions noted are these: Human immunodeficiency virus 1, SF2.
The subject of data set [13] is Human immunodeficiency virus 1. Put plainly: Antiviral activity against HIV1 NL4-3. Format: functional, organism-based. The conditions noted are these: Human immunodeficiency virus 1, NL4-3.
Data set [14] relates to Human immunodeficiency virus 2. Put plainly: Antiviral activity against HIV2 LAI. The conditions noted are these: Human immunodeficiency virus 2, LAI. The data set is classed as functional, organism-based.
Data set [15] relates to Human immunodeficiency virus. Put plainly: Antiviral activity against HIV infected in human MT4 cells assessed as reduction in virus-induced cytopathogenicity. Format: functional, organism-based. The conditions noted are these: Human immunodeficiency virus 1, MT4. On the technique in general: Damage to the host cells serves as the signal in cytopathic effect assays.
Data set [16] has as its system Human immunodeficiency virus. Nature of the data set: Antiviral activity against HIV expressing raltegravir-resistant integrase mutants. The data set is classed as functional, organism-based. The following applies: Human immunodeficiency virus 1.
Data set [17] deals with Human immunodeficiency virus 1. Nature of the data set: Antiviral activity against HIV1 3B. Format: functional, organism-based. The following applies: Human immunodeficiency virus 1, 3B.
Data set [18] has as its system Human immunodeficiency virus 2. Nature of the data set: Antiviral activity against HIV2 ROD. The following applies: Human immunodeficiency virus 2, ISOLATE ROD. The data set is classed as functional, organism-based.
In data set [19] the test system is Human immunodeficiency virus 1. Put plainly: Antiviral activity against HIV1 infected in human MT4 cells. The data set is classed as functional, organism-based. The following applies: Human immunodeficiency virus 1, MT4.
The subject of data set [20] is PBL. Put plainly: Cytotoxicity against human PBL cells incubated for 4 days by MTT assay. Format: cell-based. The following applies: 96 h.
In data set [21] the test system is Human immunodeficiency virus 1. Nature of the data set: Antiviral activity against HIV1 3B infected in human primary lymphocytes assessed as reduction in p24 production incubated for 4 days by ELISA method. The following applies: Human immunodeficiency virus 1, 3B, 96 h. The data set is classed as functional, organism-based. On the technique in general: In an ELISA, binding on a coated surface is turned into a signal by an enzyme label.

For data set [22], the target named is Human immunodeficiency virus type 1 reverse transcriptase (Human immunodeficiency virus 1) (UniProt Q72547). Nature of the data set: Inhibition of HIV1 reverse transcriptase at 330 uM.
Data set [23] concerns Human immunodeficiency virus 1. Nature of the data set: Antiviral activity against HIV1 infected in human C8166 cells assessed as inhibition of virus replication. The conditions noted are these: Human immunodeficiency virus 1, C8166. The data set is classed as functional, organism-based.
Data set [24] in a line: Cytotoxicity against human C8166 cells. The data set is classed as cell-based. The conditions noted are these: human, C8166 cells.
For data set [25], the system named is Human immunodeficiency virus 1. Nature of the data set: Antiviral activity against HIV1. The data set is classed as functional, organism-based.
Data set [26] can be described thus: Inhibition of HIV1 LTR-mediated transcription assessed as drug level causing 50% inhibition of protein/RNA complex formation incubated for 15 mins. Also noted: species or system Human immunodeficiency virus.

Converted amounts (≈) assume the structure as drawn.

Take `O=C1NC(c2cccnc2)c2c(-c3ccccc3)n[nH]c21` (stereo not given): the EC50 (in general, the midpoint of the concentration-response curve) was determined as 7.5 µM in [1] and 8.2 µM in [2].
For the compound `CN1N=C(N)c2cn([C@@H]3O[C@H](CO)[C@@H](O)[C@H]3O)c3nc(-c4ccccc4)nc1c23`, the 50% inhibitory concentration (IC50) (usually the concentration needed to halve the response being measured) in [3] was determined as 3 µM. This compound also returned a 50% effective concentration (EC50) in [4] of over 100 µM.
Consider `O=C1c2ccccc2C(=O)N1CCCCCN1C(=O)[C@H](Cc2ccc(O)cc2)n2cccc2-c2ccccc21`, for which the 90% effect concentration (IC90) (usually the concentration needed for an effect of 90%) in data set [5] is 2.6 mg/L (≈ 5 µM). The CC50 in [6] is over 50 mg/L.
As to `CSc1c(C#N)c2c(N)ncnc2n1COC(CO)CO`, the IC50 in data set [7] is 20 µM.
Turning to `O=C(C(=O)N1CCN(C(=O)c2ccccc2)CC1)c1c[nH]c2ccccc12`, the half-maximal effective concentration (EC50) in data set [8], in [9], in data set [10], in data set [11], in [12] and in [13] was 0.85 µM in each case. The response in [14] was half-maximal at 0.85 µM (EC50).
For `COc1ccc(Nc2nc3ccccc3n3cccc23)cc1OC`, the EC50 in data set [15] was over 31 mg/L.
The compound `CC1=C2C(=O)N(Cc3ccc(F)c(Cl)c3)C(=O)C2=C(O)C(=O)C1c1ccccc1` (stereo not given) registered an IC50 in [16] of 6.4 µM.
Consider `CC(=O)OCC1=C2C(=O)N(Cc3ccc(F)c(Cl)c3)C(=O)C2=C(O)C(=O)C1C(C)C` (stereo not given), for which the IC50 in data set [16] was determined as 15.6 µM.
On to `O=C1N(Cc2ccccc2Cl)c2cccn2S(=O)(=O)N1Cc1cccc(Br)c1`, for which the EC50 was 18 µM in [17] and over 150 µM in data set [18].
Turning to `CCOC(=O)c1cc2c3ccccc3c3ccccc3n2c1C`, the EC50 in data set [19] turned out to be 100 µM.
For `CN1C(=O)c2ccn(C)c2S(=O)(=O)c2ccccc21`, the concentration giving a half-maximal response (EC50) is over 362 µM in data set [20] and 14 µM in data set [21].
Turning to `O=C1c2cnncc2C2(c3ccccc3)NCCN12` (stereo not given), the inhibition (commonly the share of the control response that was lost under treatment) in data set [22] worked out at 36%.
As to `N#Cc1ccccc1CN1C(=O)N(Cc2ccccc2)S(=O)(=O)n2cccc21`, the concentration giving a half-maximal response (EC50) in data set [17] is 5.1 µM; in data set [18], over 150 µM.
Regarding `CCOC(=O)c1cc2c3cccc(OC)c3c3c(N)cccc3n2c1C`, a half-maximal response in data set [19] (EC50) required 60 µM.
`CCOC(=O)c1ncc(O)c2c1C(=O)N(CCc1ccc(F)cc1)C2=O`: in [23], the EC50 came to 1.65 µM. This compound also had a CC50 in [24] of 13.2 µM.
On to `O=C1N(Cc2ccccc2Cl)c2cccn2S(=O)(=O)N1Cc1cccc(Cl)c1`, for which the figures for the EC50 in data set [17] and in data set [18] were 8.9 µM and over 150 µM, respectively.
In turn, `O=C1CC(CO)=C2C(=O)N(Cc3ccc(F)c(Cl)c3)C(=O)C2=C1O` showed an IC50 in data set [16] of 6.5 µM.
For the compound `O=C(C[C@H]1C(=O)Nc2ccccc2-c2cccn21)OCc1ccccc1`, the IC90 in data set [5] was found to be 0.29 mg/L (≈ 0.837 µM). Also, the CC50 in data set [6] stood at 10 mg/L (≈ 28.9 µM).
With `CCOC(=O)c1ncc(O)c2c1C(=O)N(CCc1c[nH]c3ccccc13)C2=O`, in [23], the half-maximal effective concentration (EC50) was 9.37 µM. In data set [24], this compound yielded a CC50 of 26.7 µM.
With `O=Cc1ccc2n1[C@@H](Cc1ccccc1)C(=O)Nc1ccccc1-2`, the IC90 in [5] was over 0.29 mg/L.
In data set [16], `COC(=O)CCC1=C2C(=O)N(Cc3ccc(F)c(Cl)c3)C(=O)C2=C(O)C(=O)C1C(C)C` (stereo not given) displayed a 50% inhibitory concentration (IC50) of 7.1 µM.
In data set [25], `C[C@@H]1CN(C(=O)c2ccccc2)CCN1C(=O)C(=O)c1c[nH]c2cnccc12` yielded an EC50 of 0.0216 µM.
For the compound `COc1cc2c(cc1OCCC(=O)Nc1cc(C(=O)Nc3cc(C(=O)Nc4cc(C(=O)Nc5cc(C(=O)NCCC(=N)N)n(C)c5)n(C)c4)n(C)c3)n(C)c1)N=C[C@@H]1CCCN1C2=O`, the half-maximal activity concentration (AC50) (in general, the concentration at which the activity in the assay is half-maximal) in data set [26] was determined as 10 µM.
Regarding `CCOC(=O)c1ncc(O)c2c1C(=O)N(CCc1ccc(C)cc1)C2=O`, the EC50 in data set [23] worked out at 2.34 µM. The compound also registered a CC50 in data set [24] of 15.5 µM.
Turning to `N#Cc1cccc(CN2C(=O)N(Cc3ccccc3)S(=O)(=O)n3cccc32)c1`, the results for the EC50 in data set [17] and in [18] were 6.5 µM and over 150 µM, respectively.
For `O=C1N(Cc2cccc(Cl)c2)c2cccn2S(=O)(=O)N1Cc1cccc(F)c1`, in that order: 11 µM and over 150 µM.
